Assay results: ChEMBL document CHEMBL1140810, “Conversion of an MMP-potent scaffold to an MMP-selective HER-2 sheddase inhibitor via scaffold hybridization and subtle P1' permutations” (Bioorg Med Chem Lett, 2008)

Key:
[1] = target: Stromelysin-1 (Homo sapiens, UniProt P08254); assay: Inhibition of MMP3
[2] = target: T1, Disintegrin and metalloproteinase domain-containing protein 10 (Homo sapiens, UniProt O14672); assay: Inhibition of HER2 sheddase in human BT474 cells; type: cell-based, BT-474
T1 sequence (O14672 whole entry): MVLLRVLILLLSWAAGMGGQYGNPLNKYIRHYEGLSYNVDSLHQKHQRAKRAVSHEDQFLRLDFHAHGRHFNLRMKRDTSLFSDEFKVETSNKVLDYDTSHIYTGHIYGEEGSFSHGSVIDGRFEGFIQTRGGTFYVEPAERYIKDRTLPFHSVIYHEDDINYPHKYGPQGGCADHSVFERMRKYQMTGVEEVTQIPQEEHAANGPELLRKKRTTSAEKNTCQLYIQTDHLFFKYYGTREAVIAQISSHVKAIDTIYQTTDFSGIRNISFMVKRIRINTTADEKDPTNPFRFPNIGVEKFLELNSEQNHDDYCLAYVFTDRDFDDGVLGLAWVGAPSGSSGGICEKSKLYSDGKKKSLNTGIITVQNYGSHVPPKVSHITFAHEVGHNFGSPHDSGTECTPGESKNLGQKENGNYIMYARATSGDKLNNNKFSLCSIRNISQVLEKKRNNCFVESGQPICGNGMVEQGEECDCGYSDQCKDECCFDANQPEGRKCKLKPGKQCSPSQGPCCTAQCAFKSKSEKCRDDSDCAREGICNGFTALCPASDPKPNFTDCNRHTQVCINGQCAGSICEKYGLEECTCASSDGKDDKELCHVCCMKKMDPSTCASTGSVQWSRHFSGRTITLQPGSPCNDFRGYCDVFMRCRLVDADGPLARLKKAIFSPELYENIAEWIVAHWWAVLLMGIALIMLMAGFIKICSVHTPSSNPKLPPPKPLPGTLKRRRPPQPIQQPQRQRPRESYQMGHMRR

[3] = target: T1, Disintegrin and metalloproteinase domain-containing protein 10
[4] = target: T2, Interstitial collagenase (Homo sapiens, UniProt P03956)
T2 sequence (P03956 whole entry): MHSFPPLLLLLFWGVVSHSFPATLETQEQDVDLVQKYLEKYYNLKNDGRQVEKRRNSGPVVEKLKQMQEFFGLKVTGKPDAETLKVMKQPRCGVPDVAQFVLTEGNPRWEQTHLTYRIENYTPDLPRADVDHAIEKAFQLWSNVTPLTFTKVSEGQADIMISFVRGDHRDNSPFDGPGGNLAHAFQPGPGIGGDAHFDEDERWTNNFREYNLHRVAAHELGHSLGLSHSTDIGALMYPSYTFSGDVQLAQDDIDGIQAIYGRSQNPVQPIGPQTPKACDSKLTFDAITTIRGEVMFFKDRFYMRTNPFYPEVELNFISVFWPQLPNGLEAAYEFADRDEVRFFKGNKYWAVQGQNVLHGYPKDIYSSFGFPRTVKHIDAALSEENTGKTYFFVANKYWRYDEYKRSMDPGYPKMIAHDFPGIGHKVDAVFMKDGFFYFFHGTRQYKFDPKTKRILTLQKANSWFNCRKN

[5] = target: Matrix metalloproteinase-9 (Homo sapiens, UniProt P14780); assay: Inhibition of MMP9
[6] = target: 72 kDa type IV collagenase (Homo sapiens, UniProt P08253)
Sequence of 72 kDa type IV collagenase (P08253 whole entry): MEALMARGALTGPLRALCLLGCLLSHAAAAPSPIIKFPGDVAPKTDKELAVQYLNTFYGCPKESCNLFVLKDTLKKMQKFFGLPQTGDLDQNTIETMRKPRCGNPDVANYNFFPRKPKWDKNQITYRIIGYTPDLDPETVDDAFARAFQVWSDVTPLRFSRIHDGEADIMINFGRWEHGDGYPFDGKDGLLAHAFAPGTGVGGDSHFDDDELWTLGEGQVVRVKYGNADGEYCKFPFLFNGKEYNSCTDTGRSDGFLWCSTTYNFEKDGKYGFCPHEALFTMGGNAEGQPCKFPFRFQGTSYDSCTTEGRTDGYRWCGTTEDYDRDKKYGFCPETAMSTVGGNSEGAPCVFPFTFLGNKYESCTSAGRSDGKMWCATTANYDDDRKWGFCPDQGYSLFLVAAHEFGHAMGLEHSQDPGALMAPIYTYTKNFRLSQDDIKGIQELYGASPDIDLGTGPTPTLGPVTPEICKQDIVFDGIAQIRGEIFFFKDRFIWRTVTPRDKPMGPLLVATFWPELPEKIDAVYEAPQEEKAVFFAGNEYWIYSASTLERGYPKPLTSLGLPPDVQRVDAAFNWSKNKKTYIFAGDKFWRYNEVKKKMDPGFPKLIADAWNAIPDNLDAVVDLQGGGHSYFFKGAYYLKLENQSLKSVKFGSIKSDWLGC

Sequence of Stromelysin-1 (P08254 whole entry, the tested form may be a part): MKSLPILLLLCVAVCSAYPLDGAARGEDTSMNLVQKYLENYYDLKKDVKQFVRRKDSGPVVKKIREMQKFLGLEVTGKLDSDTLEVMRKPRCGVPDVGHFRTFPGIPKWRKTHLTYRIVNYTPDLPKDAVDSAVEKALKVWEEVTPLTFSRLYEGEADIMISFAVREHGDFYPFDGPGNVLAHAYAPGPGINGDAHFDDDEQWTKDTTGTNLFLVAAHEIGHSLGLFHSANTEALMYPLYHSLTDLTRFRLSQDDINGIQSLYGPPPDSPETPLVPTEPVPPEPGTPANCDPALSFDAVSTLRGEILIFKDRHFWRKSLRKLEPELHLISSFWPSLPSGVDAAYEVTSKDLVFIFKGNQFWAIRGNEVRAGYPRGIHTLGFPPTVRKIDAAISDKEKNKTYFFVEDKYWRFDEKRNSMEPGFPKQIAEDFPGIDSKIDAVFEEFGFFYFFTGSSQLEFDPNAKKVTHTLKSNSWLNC
Sequence of Matrix metalloproteinase-9 (P14780 whole entry): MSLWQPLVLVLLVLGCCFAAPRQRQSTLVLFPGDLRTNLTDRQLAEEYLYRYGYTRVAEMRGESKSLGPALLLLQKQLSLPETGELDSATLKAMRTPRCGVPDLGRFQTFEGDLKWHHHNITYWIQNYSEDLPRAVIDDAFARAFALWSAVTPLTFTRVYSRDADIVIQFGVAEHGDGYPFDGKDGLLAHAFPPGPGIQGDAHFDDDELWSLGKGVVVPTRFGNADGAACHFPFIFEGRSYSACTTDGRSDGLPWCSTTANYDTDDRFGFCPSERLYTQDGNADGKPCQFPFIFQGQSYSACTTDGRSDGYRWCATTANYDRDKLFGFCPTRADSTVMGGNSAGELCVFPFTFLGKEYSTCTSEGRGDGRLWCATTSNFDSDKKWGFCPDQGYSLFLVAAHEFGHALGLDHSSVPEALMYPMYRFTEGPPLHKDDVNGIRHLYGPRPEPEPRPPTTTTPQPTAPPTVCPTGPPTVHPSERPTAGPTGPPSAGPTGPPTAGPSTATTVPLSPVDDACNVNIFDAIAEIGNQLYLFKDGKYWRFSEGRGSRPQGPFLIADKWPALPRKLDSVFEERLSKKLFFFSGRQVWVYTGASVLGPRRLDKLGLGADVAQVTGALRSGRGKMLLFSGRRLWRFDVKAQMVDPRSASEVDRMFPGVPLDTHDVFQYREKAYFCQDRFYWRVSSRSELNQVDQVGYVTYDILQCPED

IC50 [1] | IC50 [2] | IC50 [3] | IC50 [4] | IC50 [5] | IC50 [6] | Compound
237 nM | 7.1 nM | 10 nM | 0.259 µM | 25 nM | 4 nM | O=C(O[C@H]1CCOC1)N1CCC(CS(=O)(=O)N2CC=C(c3ccccc3)CC2)(C(=O)NO)CC1
– | 217 nM | 107 nM | – | – | > 2000 nM | Cc1ccccc1N1CCN(S(=O)(=O)CC2(C(=O)NO)CCN(C(=O)O[C@H]3CCOC3)CC2)CC1
– | 45 nM | 107 nM | – | – | 1560 nM | Cc1cc(C#N)ccc1C1=CCN(S(=O)(=O)CC2(C(=O)NO)CCN(C(=O)O[C@H]3CCOC3)CC2)CC1
– | 133 nM | 18 nM | – | – | 2000 nM | Cc1ccccc1C1=CCN(S(=O)(=O)CC2(C(=O)NO)CCN(C(=O)O[C@H]3CCOC3)CC2)CC1
> 5000 nM | 25 nM | 26 nM | > 5 µM | > 5000 nM | > 5000 nM | Cc1cc(C#N)ccc1N1CCN(S(=O)(=O)CC2(C(=O)NO)CCN(C(=O)O[C@H]3CCOC3)CC2)CC1
– | 16 nM | 18 nM | > 5 µM | – | 546 nM | Cc1ccccc1C1CCN(S(=O)(=O)CC2(C(=O)NO)CCN(C(=O)OC3CCNC3)CC2)CC1 (configuration not stated)
942 nM | 76 nM | 44 nM | > 5 µM | 100 nM | 135 nM | O=C(O[C@H]1CCOC1)N1CCC(CS(=O)(=O)N2CCC(c3ccccc3F)CC2)(C(=O)NO)CC1
– | > 1000 nM | > 2000 nM | – | – | > 2000 nM | N#Cc1ccccc1C1CCN(S(=O)(=O)CC2(C(=O)NO)CCN(C(=O)O[C@H]3CCOC3)CC2)CC1
– | 23 nM | 34 nM | > 5 µM | – | > 2000 nM | Cc1ccccc1C1CCN(S(=O)(=O)CC2(C(=O)NO)CCN(C(=O)OC[C@@H]3CCCN3)CC2)CC1
– | 30 nM | 19 nM | > 5 µM | – | > 2000 nM | Cc1ccccc1C1CCN(S(=O)(=O)CC2(C(=O)NO)CCN(C(=O)OC[C@H]3CCCN3)CC2)CC1
– | 6.5 nM | 9.1 nM | > 5 µM | – | 1270 nM | Cc1cc(C#N)ccc1C1CCN(S(=O)(=O)CC2(C(=O)NO)CCN(C(=O)OC[C@@H]3CCCN3)CC2)CC1
> 5000 nM | 41 nM | 18 nM | > 5 µM | > 5000 nM | > 2000 nM | Cc1ccccc1C1CCN(S(=O)(=O)CC2(C(=O)NO)CCN(C(=O)O[C@H]3CCOC3)CC2)CC1
– | 23 nM | 11 nM | > 5 µM | – | 1380 nM | Cc1cc(C#N)ccc1C1CCN(S(=O)(=O)CC2(C(=O)NO)CCN(C(=O)OC[C@H]3CCCN3)CC2)CC1
– | > 1000 nM | > 2000 nM | – | – | 655 nM | Cc1cc(C(=O)N(C)C)ccc1C1CCN(S(=O)(=O)CC2(C(=O)NO)CCN(C(=O)O[C@H]3CCOC3)CC2)CC1
– | 27 nM | 34 nM | > 5 µM | – | > 2000 nM | Cc1cc(C#N)ccc1C1=CCN(S(=O)(=O)CC2(C(=O)NO)CCN(C(=O)OC[C@@H]3CCCN3)CC2)CC1
> 5000 nM | 14 nM | 12 nM | > 5 µM | > 5000 nM | 2000 nM | Cc1cc(C#N)ccc1C1CCN(S(=O)(=O)CC2(C(=O)NO)CCN(C(=O)O[C@H]3CCOC3)CC2)CC1

IC50 [1] | IC50 [2] | IC50 [3] | IC50 [4] | IC50 [5] | IC50 [6] | Compound
– | 77 nM | 39 nM | – | – | 9 nM | N#Cc1ccc(C2CCN(S(=O)(=O)CC3(C(=O)NO)CCN(C(=O)O[C@H]4CCOC4)CC3)CC2)cc1
756 nM | 96 nM | 57 nM | > 5 µM | 535 nM | 126 nM | Cc1cc(C2CCN(S(=O)(=O)CC3(C(=O)NO)CCN(C(=O)O[C@H]4CCOC4)CC3)CC2)cc(C)c1C#N
– | 36 nM | 11 nM | > 5 µM | – | 564 nM | Cc1ccccc1C1CCN(S(=O)(=O)CC2(C(=O)NO)CCN(C(=O)OC3(C)CCOC3)CC2)CC1 (configuration not stated)
– | 102 nM | 332 nM | – | – | 52 nM | O=C(O[C@H]1CCOC1)N1CCC(CS(=O)(=O)N2CC=C(c3ccccc3)C2)(C(=O)NO)CC1
2160 nM | 833 nM | 286 nM | > 5 µM | 955 nM | 315 nM | Cc1cc(C)cc(C2CCN(S(=O)(=O)CC3(C(=O)NO)CCN(C(=O)O[C@H]4CCOC4)CC3)CC2)c1
– | 358 nM | 261 nM | – | – | 549 nM | O=C(O[C@H]1CCOC1)N1CCC(CS(=O)(=O)N2CCC(c3ccccc3)C2)(C(=O)NO)CC1 (some centres not stated)
< 1.5 nM | – | – | 8.66 µM | < 1.5 nM | < 1.5 nM | C#CCN1CCC(CS(=O)(=O)c2ccc(Oc3ccccc3)cc2)(C(=O)NO)CC1
– | 19 nM | 24 nM | > 5 µM | – | > 2000 nM | Cc1cc(C#N)ccc1C1=CCN(S(=O)(=O)CC2(C(=O)NO)CCN(C(=O)OC[C@H]3CCCN3)CC2)CC1
925 nM | 13 nM | 15 nM | 0.774 µM | 78 nM | 13 nM | O=C(O[C@H]1CCOC1)N1CCC(CS(=O)(=O)N2CCN(c3ccccc3)CC2)(C(=O)NO)CC1
– | 13 nM | 7.8 nM | > 5 µM | – | > 2000 nM | Cc1cc(C#N)ccc1C1CCN(S(=O)(=O)CC2(C(=O)NO)CCN(C(=O)OC3CCNC3)CC2)CC1 (configuration not stated)
366 nM | 22 nM | 28 nM | 0.753 µM | 22 nM | 18 nM | O=C(O[C@H]1CCOC1)N1CCC(CS(=O)(=O)N2CCC(c3ccccc3)CC2)(C(=O)NO)CC1
– | > 1000 nM | 1040 nM | – | – | > 2000 nM | O=C(O[C@H]1CCOC1)N1CCC(CS(=O)(=O)N2CCC(c3ccccc3C(F)(F)F)CC2)(C(=O)NO)CC1
– | 14 nM | 22 nM | > 5 µM | – | 574 nM | Cc1ccccc1C1CCN(S(=O)(=O)CC2(C(=O)NO)CCN(C(=O)OC3COCC3(C)C)CC2)CC1 (configuration not stated)
– | 141 nM | 92 nM | – | – | > 2000 nM | Cc1cc(F)ccc1C1CCN(S(=O)(=O)CC2(C(=O)NO)CCN(C(=O)O[C@H]3CCOC3)CC2)CC1
– | 6.2 nM | 16 nM | 5 µM | – | 537 nM | Cc1ccccc1C1CCN(S(=O)(=O)CC2(C(=O)NO)CCN(C(=O)OC3CCCC3O)CC2)CC1 (trans isomer)
